Key:
human μ-opioid receptor = molecular target: T1, human μ-opioid receptor (Homo sapiens, UniProt P35372); assay: Human μ-opioid receptor radioligand assay ([3H]-DAMGO); format: binding; conditions: transfected CHO-K1 cell membranes, 1 nM [3H]-DAMGO, binding expressed as Ki; read-out: Mu binding activity
T1 construct: expressed in transfected cells; host or cells: CHO-K1
Protocol: Human μ-Opioid Receptor Radioligand Assay
To investigate binding properties of test compounds to human μ-opioid receptor, transfected CHO-K1 cell membranes and [^3H]-DAMGO (Perkin Elmer, ES-542-C), as the radioligand, were used. The assay was carried out with 20 μg of membrane suspension, 1 nM of [^3H]-DAMGO in either absence or presence of either buffer or 10 μM Naloxone for total and non-specific binding, respectively. Binding buffer contained Tris-HCl 50 mM, MgCl2 5 mM at pH 7.4. Plates were incubated at 27° C. for 60 minutes. After the incubation period, the reaction mix was then transferred to MultiScreen HTS, FC plates (Millipore), filtered and plates were washed 3 times with ice-cold 10 mM Tris-HCL (pH 7.4). Filters were dried and counted at approximately 40% efficiency in a MicroBeta scintillation counter (Perkin-Elmer) using EcoScint liquid scintillation cocktail. Preferably, transfected CHO-K1 cell membranes (20 μg) were incubated with 1 nM of [^3H]-DAMGO in assay buffer containing Tris-HCl 50 mM, MgCl2 5 mM at pH 7.4. NBS (non-specific binding) was measured by adding 10 μM Naloxone. The binding of the test compound was measured at five different concentrations. Plates were incubated at 27° C. for 60 minutes. After the incubation period, the reaction mix was then transferred to MultiScreen HTS, FC plates (Millipore), filtered and plates were washed 3 times with ice-cold 10 mM Tris-HCL (pH 7.4). Filters were dried and counted at approximately 40% efficiency in a MicroBeta scintillation counter (Perkin-Elmer) using EcoScint liquid scintillation cocktail.

[1] = molecular target: Human α2δ-1 subunit of Cav2.2 calcium channel (Homo sapiens, UniProt P54289); assay: Human α2δ-1 subunit of Cav2.2 calcium channel assay ([3H]-Gabapentin binding); conditions: human α2δ-1 enriched membranes, 15 nM [3H]-Gabapentin, binding expressed as Ki; read-out: α2δ1 binding activity
Protocol: Human α2δ-1 Subunit of Cav2.2 Calcium Channel Assay
Human α2δ-1 enriched membranes (2.5 μg) were incubated with 15 nM of radiolabeled [3H]-Gabapentin in assay buffer containing Hepes-KOH 10 mM, pH 7.4. NSB (non specific binding) was measured by adding 10 μM pregabalin. The binding of the test compound was measured at five different concentrations. After 60 min incubation at 27° C., binding reaction was terminated by filtering through Multiscreen GF/C (Millipore) presoaked in 0.5% polyethyleneimine in Vacuum Manifold Station, followed by 3 washes with ice-cold filtration buffer containing 50 mM Tris-HCl, pH 7.4. Filter plates were dried at 60° C. for 1 hour and 30 μl of scintillation cocktail were added to each well before radioactivity reading. Readings were performed in a Trilux 1450 Microbeta radioactive counter (Perkin Elmer).

T1 sequence (P35372 whole entry): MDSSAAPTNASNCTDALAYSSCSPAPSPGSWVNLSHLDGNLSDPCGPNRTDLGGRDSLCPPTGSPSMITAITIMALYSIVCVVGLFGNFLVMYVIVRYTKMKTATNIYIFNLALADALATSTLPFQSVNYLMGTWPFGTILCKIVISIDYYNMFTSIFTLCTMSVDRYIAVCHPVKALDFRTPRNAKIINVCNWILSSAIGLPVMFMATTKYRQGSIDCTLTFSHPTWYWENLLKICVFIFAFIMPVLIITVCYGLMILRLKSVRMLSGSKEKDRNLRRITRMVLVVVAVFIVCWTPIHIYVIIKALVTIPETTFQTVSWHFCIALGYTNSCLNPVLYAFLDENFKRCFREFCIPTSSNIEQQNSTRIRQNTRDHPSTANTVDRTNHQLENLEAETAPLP
Chain of Human α2δ-1 subunit of Cav2.2 calcium channel (P54289 25-1103): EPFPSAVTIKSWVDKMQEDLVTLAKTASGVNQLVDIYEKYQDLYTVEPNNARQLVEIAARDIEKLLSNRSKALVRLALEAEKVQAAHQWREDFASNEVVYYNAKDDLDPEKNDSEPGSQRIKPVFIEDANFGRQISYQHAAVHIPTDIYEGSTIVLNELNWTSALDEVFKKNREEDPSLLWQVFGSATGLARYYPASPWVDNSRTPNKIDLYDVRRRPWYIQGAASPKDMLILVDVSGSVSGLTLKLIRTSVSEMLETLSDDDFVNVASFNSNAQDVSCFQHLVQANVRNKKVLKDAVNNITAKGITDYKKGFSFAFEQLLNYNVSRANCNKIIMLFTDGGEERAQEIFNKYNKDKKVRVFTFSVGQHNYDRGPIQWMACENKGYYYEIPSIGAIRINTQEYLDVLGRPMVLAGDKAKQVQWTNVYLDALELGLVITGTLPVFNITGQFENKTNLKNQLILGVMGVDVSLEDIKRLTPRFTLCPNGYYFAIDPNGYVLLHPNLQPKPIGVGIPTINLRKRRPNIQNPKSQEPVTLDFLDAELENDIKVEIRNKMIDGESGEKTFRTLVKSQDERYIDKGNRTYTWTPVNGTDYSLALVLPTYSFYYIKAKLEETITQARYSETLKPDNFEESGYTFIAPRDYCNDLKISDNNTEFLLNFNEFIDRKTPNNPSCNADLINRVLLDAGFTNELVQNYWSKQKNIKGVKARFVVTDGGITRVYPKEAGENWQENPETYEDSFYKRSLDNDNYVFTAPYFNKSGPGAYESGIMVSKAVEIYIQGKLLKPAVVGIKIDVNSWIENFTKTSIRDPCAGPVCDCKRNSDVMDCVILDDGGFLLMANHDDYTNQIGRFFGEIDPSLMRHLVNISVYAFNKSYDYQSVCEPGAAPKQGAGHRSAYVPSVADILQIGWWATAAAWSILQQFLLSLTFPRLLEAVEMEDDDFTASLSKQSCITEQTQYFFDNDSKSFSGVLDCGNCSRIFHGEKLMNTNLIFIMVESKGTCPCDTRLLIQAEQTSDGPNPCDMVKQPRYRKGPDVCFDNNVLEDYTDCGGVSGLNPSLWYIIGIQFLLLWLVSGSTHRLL

SMILES | Ki (human μ-opioid receptor) [nM] | Ki [1] [µM]
CCOc1ccc(-n2nc3c(C4=CCN(C(=O)OC(C)(C)C)CC4)nnc(C)c3c2C)c(F)c1 [Ex 1, tert-Butyl 4-(2-(4-ethoxy-2-fluorophenyl)-3,4-dimethyl-2H-pyrazolo[3,4-d]pyridazin-7-yl)-3,6-dihydropyridine-1(2H)-carboxylate] | > 500 | ≥ 5
CCOc1ccc(-n2nc3c(C4=CCN(C)CC4)nnc(C)c3c2C)c(F)c1 [Ex 2, 2-(4-Ethoxy-2-fluorophenyl)-3,4-dimethyl-7-(1-methyl-1,2,3,6-tetrahydropyridin-4-yl)-2H-pyrazolo[3,4-d]pyridazine] | > 500 | ≥ 5
CCOc1ccc(-n2nc3c(C4=CN(C(=O)OC(C)(C)C)CCC4)nnc(C)c3c2C)c(F)c1 [Ex 3, tert-Butyl 5-(2-(4-ethoxy-2-fluorophenyl)-3,4-dimethyl-2H-pyrazolo[3,4-d]pyridazin-7-yl)-3,4-dihydropyridine-1(2H)-carboxylate] | > 500 | ≥ 5
CCOc1ccc(-n2nc3c(/C=C/CNC(=O)OC(C)(C)C)nnc(C)c3c2C)c(F)c1 [Ex 4, tert-Butyl (E)-(3-(2-(4-ethoxy-2-fluorophenyl)-3,4-dimethyl-2H-pyrazolo[3,4-d]pyridazin-7-yl)allyl)carbamate] | > 500 | ≥ 5
CCOc1ccc(-n2nc3c(/C=C/CN(C)C(=O)OC(C)(C)C)nnc(C)c3c2C)c(F)c1 [Ex 5, tert-Butyl (E)-(3-(2-(4-ethoxy-2-fluorophenyl)-3,4-dimethyl-2H-pyrazolo[3,4-d]pyridazin-7-yl)allyl)(methyl)carbamate] | > 500 | ≥ 5
CCOc1ccc(-n2nc3c(-c4ccc(CN(C)C)cc4)nnc(C)c3c2C)c(F)c1 [Ex 6, 1-(4-(2-(4-Ethoxy-2-fluorophenyl)-3,4-dimethyl-2H-pyrazolo[3,4-d]pyridazin-7-yl)phenyl)-N,N-dimethylmethanamine] | > 500 | 0.5 to 3
CCOc1ccc(-n2nc3c(-c4ccc(CCN(C)C)cc4)nnc(C)c3c2C)c(F)c1 [Ex 7, 2-(4-(2-(4-Ethoxy-2-fluorophenyl)-3,4-dimethyl-2H-pyrazolo[3,4-d]pyridazin-7-yl)phenyl)-N,N-dimethylethan-1-amine] | > 500 | 0.5 to 3
CCOc1ccc(-n2nc3c(-c4cccc(CN(C)C)c4)nnc(C)c3c2C)c(F)c1 [Ex 8, 1-(3-(2-(4-Ethoxy-2-fluorophenyl)-3,4-dimethyl-2H-pyrazolo[3,4-d]pyridazin-7-yl)phenyl)-N,N-dimethylmethanamine] | > 500 | 0.5 to 3
CCOc1ccc(-n2nc3c(-c4cccc(CCN(C)C)c4)nnc(C)c3c2C)c(F)c1 [Ex 9, 2-(3-(2-(4-Ethoxy-2-fluorophenyl)-3,4-dimethyl-2H-pyrazolo[3,4-d]pyridazin-7-yl)phenyl)-N,N-dimethylethan-1-amine] | > 500 | 0.5 to 3
CCOc1ccc(-n2nc3c(-c4ccc5ncn(CCN(C)C)c5c4)nnc(C)c3c2C)c(F)c1 [Ex 10, 2-(6-(2-(4-Ethoxy-2-fluorophenyl)-3,4-dimethyl-2H-pyrazolo[3,4-d]pyridazin-7-yl)-1H-benzo[d]imidazol-1-yl)-N,N-dimethylethan-1-amine] | > 500 | 3 to 5
CCOc1ccc(-n2nc3c(-c4ccc5ncn(CCNC(=O)OC(C)(C)C)c5c4)nnc(C)c3c2C)c(F)c1 [Ex 11, tert-butyl (2-(6-(2-(4-ethoxy-2-fluorophenyl)-3,4-dimethyl-2H-pyrazolo[3,4-d]pyridazin-7-yl)-1H-benzo[d]imidazol-1-yl)ethyl)carbamate] | > 500 | > 5
CCOc1ccc(-n2nc3c(C4CN(C(=O)OC(C)(C)C)C4)nnc(C)c3c2C)c(F)c1 [Ex 12, tert-Butyl 3-(2-(4-ethoxy-2-fluorophenyl)-3,4-dimethyl-2H-pyrazolo[3,4-d]pyridazin-7-yl)azetidine-1-carboxylate] | > 500 | ≥ 5

From patent US20200190087A1 (priority 2016, published 2020)
